Values joined by “and” are separate entries in the source; they are usually repeats but may differ in a detail not shown here. Identical values can stand only once. Some results are limits rather than exact numbers.

The assay has as its target SARS-CoV-2 Main Protease (SARS-CoV-2) (UniProt P0DTD1).
With `O=C(Nc1cncc2c1CCCC2)[C@H]1CNS(=O)(=O)c2ccc(Cl)cc21` (stereo in doubt), the IC50 (in general, the midpoint of a concentration-inhibition curve) turned out to be 0.723 µM. That is a sub-micromolar value.
In turn, `CC(C)(C)c1ccc(N(C(=O)c2cccc(C#N)c2)C(C(=O)NCCc2cccc(F)c2)c2cccnc2)cc1` (configuration not stated) showed an IC50 of over 99.5 µM.
In turn, `CC(C)(C)c1ccc(N(C(=O)c2n[nH]c(=O)[nH]c2=O)C(C(=O)NCCc2cccc(F)c2)c2cccnc2)cc1` (configuration not stated) returned an IC50 of over 99.5 µM.
In turn, `O=C(Cc1cccc(Cl)c1)NC1C(=O)Nc2ccccc21` (configuration not stated) returned an IC50 of over 99.5 µM.
Regarding `O=C(Nc1ccc(F)cc1)[C@@H]1CN(C(=O)CCl)CCN1S(=O)(=O)c1ccsc1` (stereo in doubt), the IC50 came to 0.593 µM.
Under `O=C(Nc1cncc2ccc(C(F)(F)F)cc12)C1CCOc2ccc(Cl)cc21` (configuration not stated) stands over 99.5 µM; under `O=C(c1cc(=O)[nH]c2ccccc12)N1CCN(c2ccccc2)CC1`, 27.5 µM; under `O=C(Cc1cccc(Cl)c1)Nc1n[nH]c2ccnc(Br)c12`, over 99.5 µM.
On to `CC(NCc1cnc2ccccn12)c1nnc2ccccn12` (configuration not stated), for which the IC50 is over 99.5 µM.
Take `C[C@H](Nc1cc(Cl)cc(CC(=O)Nc2cncc3ccccc23)c1)c1ccc(Br)cc1` (stereo in doubt): the IC50 was 3.77 µM.
Compound `C=CC(=O)N(c1ccc(C(C)(C)C)cc1)C(C(=O)NCCc1cccc(F)c1)c1cncc(C)c1` (configuration not stated) showed an IC50 of 11.6 µM. Compared with the last compound, the IC50 is about 3.1-fold higher.
In turn, `CC(C)(C)c1ccc(O)c(Nc2cc(Cl)cc(CC(=O)Nc3cncc4ccccc34)c2)c1` gave an IC50 of 6.5 µM.
In turn, `COc1c(Cl)cccc1Nc1cc(Cl)cc(CC(=O)Nc2cncc3ccccc23)c1` came in with an IC50 of 1.68 µM.
As for `CC(C)(C)c1ccc(N(C(=O)c2ccno2)C(C(=O)NCCc2cccc(F)c2)c2cccnc2)cc1` (configuration not stated), the IC50 was 1.11 µM.
As to `CC(C)(C)c1ccc(N(C(=O)c2cocn2)C(C(=O)NCCc2cnc[nH]2)c2cccnc2)cc1` (configuration not stated), the IC50 was found to be 14.5 µM. Compared with the last compound, the IC50 is about 13-fold higher.
Regarding `Cc1[nH]ncc1CC(=O)Nc1cccc(Cl)c1`, the IC50 stood at 54.6 µM.
In turn, `O=C(Cc1cc(Cl)cc(Nc2c(F)cccc2Br)c1)Nc1cncc2ccccc12` had a concentration for half-maximal inhibition (IC50) of 3.39 µM.
As for `O=C(NCCc1cccc(F)c1)C(c1cccnc1)N(C(=O)c1cocn1)c1ccc2scnc2c1` (configuration not stated), the figure is 84 µM; as for `CC1(C(=O)Nc2cncc3cc(S(C)(=O)=O)ccc23)CN(CC(=O)NC2CC2)S(=O)(=O)c2ccc(Cl)cc21` (configuration not stated), 0.468 µM.
Under `O=C(Nc1cncc2ccccc12)C1COCc2c(Cl)cccc21` (configuration not stated) stands 7.02 µM.
Compound `O=C(Cc1cc(Cl)cc(Oc2cccc(=O)[nH]2)c1)Nc1cncc2ccccc12` had an IC50 of 1.98 µM.
As for `Cn1ccc2cc(N(C(=O)c3cocn3)C(C(=O)NCCc3cccc(F)c3)c3cccnc3)ccc21` (configuration not stated), the IC50 is 23.8 µM.
As for `O=C1NCC(C(=O)Nc2cnc3ccccn23)c2cc(Cl)ccc21` (configuration not stated), the IC50 was 5.93 µM.
Take `C=CC(=O)N(c1ccc(C(C)(C)C)cc1)C(C(=O)NCCCSC)c1cccnc1` (configuration not stated): the IC50 was determined as 25.5 µM. This IC50 is about 4.3-fold higher than that of the compound before.
`Cc1ccccc1C(C)N(C(=O)c1cocn1)C(C(=O)NCCc1cccc(F)c1)c1cccnc1` (configuration not stated) came in with an IC50 of over 99.5 µM.
In turn, `CC(C)(C)c1ccc(N(C(=O)c2nccs2)C(C(=O)NCCc2cccc(F)c2)c2cccnc2)cc1` (configuration not stated) displayed an IC50 of 0.8 µM. This lies in the sub-micromolar range.
The compound `Cc1nc2sccn2c1CN(C)C(=O)c1cnc2sccn2c1=O` came in with an IC50 of over 99.5 µM.
Compound `O=C(c1ccnn1C1CC1)N1Cc2ccc(Cl)cc2C2(CCN(c3cncc4ccccc34)C2=O)C1` (configuration not stated) gave an IC50 of 0.163 µM.
Take `O=C(Cc1cccc(Cl)c1)Nc1cncc2nccnc12`: the IC50 was determined as 76 µM.
In the case of `CC(C)=CCC/C(C)=C/CC/C(C)=C/CC/C(C)=C/Cc1cc(O)cc2c1OC(=O)C2=C(C)C`, the IC50 is over 99.5 µM.
Under `CN(C(=O)c1ccccc1N)c1cc(Cl)cc(CC(=O)Nc2cncc3ccccc23)c1` stands 1.94 µM.
Under `Cc1cc(C(F)(F)F)nc2c1c(N)nn2C(=O)Cc1cccc(Cl)c1` stands over 99.5 µM; under `CC(C)(C)c1ccc(N(C(=O)c2cocn2)C(C(=O)N2CCC(c3cccc(F)c3)CC2)c2cccnc2)cc1` (configuration not stated), 9.46 µM; under `O=S(=O)(c1cc2c(cc1OCc1ccccc1)OCO2)N1CCOCC1`, over 99.5 µM.
For `COc1ccc2c(c1)CN(C(=O)CCl)C(c1ccccc1)C2` (configuration not stated), the IC50 was determined as 3.74 µM. In other words, the single-digit micromolar range.
Under `COc1nc2ncc(C(C(=O)NCCc3cccc(F)c3)N(C(=O)c3cocn3)c3ccc(C(C)(C)C)cc3)cn2n1` (configuration not stated) stands 33.4 µM; under `Cc1nc(N2CCN(S(=O)(=O)c3ccccc3)CC2)sc1S(N)(=O)=O`, over 99.5 µM; under `O=C(Nc1cncc2ccccc12)C1CN(C2CCNC2=O)C(=O)c2ccc(Cl)cc21` (configuration not stated), 0.717 µM.
Compound `CC(C(N)=O)c1cc(Cl)cc(CC(=O)Nc2cncc3ccccc23)c1` (configuration not stated) yielded an IC50 of 2.62 µM.
As for `CCOC(=O)c1cc(-c2ccccc2)sc1NC(=O)Cc1csc(-c2ccccc2)n1`, the IC50 came to 4.66 µM.
With `Cn1ncc2c(=O)[nH]c(NNC(=O)c3cccn4nccc34)nc21`, the IC50 was over 99.5 µM.
As for `CS(=O)(=O)c1ccc2c(NC(=O)C3CN(CC(=O)NCC4CC4)C(=O)c4ccc(Cl)cc43)cncc2c1` (configuration not stated), the figure is 0.179 µM and 0.174 µM.
Under `O=C(Cc1cccc(Cl)c1)Nn1cnc2ccccc2c1=O` stands 8.65 µM.
In the case of `O=C(CN1CC(C(=O)Nc2cncc3cc(F)ccc23)c2cc(Cl)ccc2C1=O)NC1CCC1` (configuration not stated), the IC50 worked out at 0.34 µM. This IC50 lies about 25-fold lower than the previous one.
As for `N#CC1(CS(=O)(=O)N2Cc3ccc(Cl)cc3C(C(=O)Nc3cncc4cccc(Cl)c34)C2)CC1` (configuration not stated), the figure is 0.259 µM; as for `O=C(Cc1cc(Cl)cc(Nc2ccc3ccccc3c2O)c1)Nc1cncc2ccccc12`, 4.1 µM.
Compound `Cc1nc(CN2Cc3ccc(Cl)cc3C(C(=O)Nc3cncc4ccc(F)cc34)C2)cs1` (configuration not stated) came in with an IC50 of 1.12 µM.
`COc1cc(CN2CCN(C(=O)CCl)CC2)c2ccccc2c1`: the IC50 came to 2.75 µM.
Turning to `N#CCCN1CCN(C(=O)CC2(C(=O)Nc3cncc4ccccc34)CCOc3ccc(Cl)cc32)CC1` (configuration not stated), the IC50 amounted to 21.3 µM. This IC50 lies about 7.7-fold higher than the previous one.
On to `Cc1nc(C(=O)N(c2ccc(C(C)(C)C)cc2)C(C(=O)NCCc2cccc(F)c2)c2cccnc2)nn1-c1nnc[nH]1` (configuration not stated), for which the IC50 was over 99.5 µM.
The compound `Cc1ccc(NCc2nnc3n(C)c(=O)c4ccccc4n23)cc1C` returned an IC50 of over 99.5 µM.
In turn, `O=C(NCCc1cccc(F)c1)C(c1cccnc1)N(C(=O)c1cocn1)C1CCN(c2ccccc2)C1` (configuration not stated) came in with an IC50 of over 99.5 µM.
As for `O=C(Cc1cccc(Cl)c1)Nc1cncc2cccc(Cl)c12`, the IC50 came to 0.594 µM.
In turn, `O=C(Cc1cc(Cl)cc(Nc2ccc(I)cn2)c1)Nc1cncc2ccccc12` returned an IC50 of 2.21 µM. This IC50 is about 3.7-fold higher than that of the compound before.
As for `O=C(Nc1cncc2ccccc12)C1CCOc2c(OCC3CC3)cc(Cl)cc21` (configuration not stated), the IC50 was over 2.49 µM.
Under `O=C(Nc1cncc2ccccc12)C1CN(CC(F)(F)F)Cc2ccc(Cl)cc21` (configuration not stated) stands 3.41 µM; under `O=C(Cc1cc(Cl)cc(Nc2ncccc2OCc2ccccc2)c1)Nc1cncc2ccccc12`, 2 µM.
`c1ccc(-c2cc(Sc3nnc(-c4cccs4)o3)n3ncnc3n2)cc1` came in with an IC50 of 0.221 µM.
With `O=C(Cc1cc(Cl)cc(Nc2ccc(F)nc2Br)c1)Nc1cncc2ccccc12`, the IC50 was found to be 1.86 µM.
Take `Cn1cc(-c2cc(C(=O)N(c3ccc(C(C)(C)C)cc3)C(C(=O)NCCc3cccc(F)c3)c3cccnc3)on2)cn1` (configuration not stated): the IC50 is over 99.5 µM.
For `N#CC1(CS(=O)(=O)N2Cc3ccc(Cl)cc3[C@@H](C(=O)Nc3cncc4ccccc34)C2)CCOCC1` (stereo in doubt), the IC50 amounted to 15.2 µM.
As for `O=C(Nc1cncc2ccccc12)C1CCOc2c(O)ccc(Cl)c21` (configuration not stated), the figure is over 99.5 µM; as for `CC(=O)C(=O)N1CCN(Cc2cccc(Cl)c2)CC1`, over 99.5 µM.
Under `O=C(Cc1cc(Cl)cc(N2CCN(Cc3ccc(C(F)(F)F)cc3)CC2)c1)Nc1cncc2ccccc12` stands 4.28 µM.
As to `O=C(Cc1cccc(Cl)c1)N1Cc2ccccc2C(O)C1` (configuration not stated), the IC50 is 14.8 µM.
For `O=C(CCl)N1CCCN(S(=O)(=O)c2ccccc2F)CC1`, the IC50 is 15.6 µM.
The compound `O=C(Cc1cc(Cl)cc(Nc2cc(C(F)(F)F)ccc2Cl)c1)Nc1cncc2ccccc12` displayed an IC50 of 1.61 µM. This IC50 lies about 9.7-fold lower than the previous one.
The compound `O=C(Nn1nnc2ccccc21)C(Cc1cccc(Cl)c1)c1ccc(N2CCCCC2=O)cc1` (configuration not stated) displayed a half-maximal inhibitory concentration (IC50) of 50.9 µM.
With `CC(C)(C)c1ccc(N(C(=O)c2cocn2)C(C(=O)NCC(=O)Nc2cccc([N+](=O)[O-])c2)c2cccnc2)cc1` (configuration not stated), the IC50 stood at 14.4 µM.
On to `CN(CC(=O)Nc1ccccc1Br)C(=O)CCl`, for which the IC50 came to 5.9 µM.
Compound `CC(C(=O)Nc1cccc2nccnc12)n1cnc2c(N)ncnc21` (configuration not stated) yielded an IC50 of over 99.5 µM.
Consider `C[C@@]1(C(=O)Nc2cncc3ccccc23)CCNc2cc(Cl)c(Cl)cc21` (stereo in doubt), for which the IC50 was 0.234 µM and 0.979 µM.
As to `CCn1nccc1C(=O)N1Cc2ccc(Cl)cc2C2(CCN(c3cncc4ccccc34)C2=O)C1` (configuration not stated), the IC50 came to 0.297 µM.
Under `COc1cc(N(C(=O)c2cnc[nH]2)C(C(=O)NCCc2cccc(F)c2)c2cccnc2)ccc1S(=O)(=O)N(C)C` (configuration not stated) stands over 99 µM; under `CC(C)(C)c1ccc(N(C(=O)c2cocn2)C(C(=O)NCCc2cccc(F)c2)c2cc(=O)[nH]c3ccccc23)cc1` (configuration not stated), 1.16 µM.
Compound `Cn1cc(CN(C(=O)Cn2nnc3ccccc32)c2ccc(N3CCCCC3)cc2)cn1` returned an IC50 of over 99.5 µM.
Under `O=C(Nc1cncc2ccccc12)C1CN(S(=O)(=O)CC2(F)CC2)Cc2ccc(Cl)cc21` (configuration not stated) stands 0.176 µM.
In turn, `Cc1ccc(C(=O)Nc2c(-c3cnn(C)c3)nc3ccccn23)cn1` came in with an IC50 of over 99.5 µM.
In the case of `COc1nc(Br)cnc1Nc1cc(Cl)cc(CC(=O)Nc2cncc3ccccc23)c1`, the IC50 worked out at 2.05 µM. This counts as single-digit micromolar.
As to `N#CC1(CS(=O)(=O)N2Cc3ccc(Cl)cc3C(C(=O)Nc3cncc4ccccc34)C2)CCOCC1` (configuration not stated), the IC50 is 0.0804 µM and 0.0971 µM and 0.17 µM.
Under `COc1ccccc1CN(C(=O)c1cnc[nH]1)C(C(=O)NCCc1cccc(F)c1)c1cccnc1` (configuration not stated) stands over 99 µM; under `Cc1nc(CN2C(=O)C(=O)c3cc(Br)ccc32)cs1`, over 99.5 µM.
Compound `CC(C)(C)c1cnc(N(C(=O)c2cocn2)C(C(=O)NCCc2cccc(F)c2)c2cccnc2)o1` (configuration not stated) came in with an IC50 of 32.4 µM.
For the compound `Cc1cc(Cl)cc(CC2CCN(C(=O)CCl)CC2)c1`, the IC50 was 3.57 µM.
As for `CN1CCCN(c2ccc(N(C(=O)c3cocn3)C(C(=O)NCCc3cccc(F)c3)c3cccnc3)cc2)C1=O` (configuration not stated), the figure is 61 µM.
`O=C(Cc1cc(Cl)cc(NCCCN2CCS(=O)(=O)CC2)c1)Nc1cncc2ccccc12`: the half-maximal inhibitory concentration (IC50) worked out at 1.92 µM.
In turn, `Nc1cncc(NC(=O)C2CCOc3ccc(Cl)cc32)c1C1CC1` (configuration not stated) had an IC50 of 4.95 µM. This IC50 is about 2.6-fold higher than that of the compound before.
